# Data taken from BindingDB's records for doi:10.1021/np50113a004 (1994).
# Legend:
# Integrin alpha-L = molecular target: T1, Integrin alpha-L (Homo sapiens, UniProt P20701); assay: Inhibition of LFA1 expressed in human JY cells interaction with ICAM1-IG expressed in human HeLa cell monolayer after 45 mins by cell adhesion assay
# T1 sequence (P20701 whole entry): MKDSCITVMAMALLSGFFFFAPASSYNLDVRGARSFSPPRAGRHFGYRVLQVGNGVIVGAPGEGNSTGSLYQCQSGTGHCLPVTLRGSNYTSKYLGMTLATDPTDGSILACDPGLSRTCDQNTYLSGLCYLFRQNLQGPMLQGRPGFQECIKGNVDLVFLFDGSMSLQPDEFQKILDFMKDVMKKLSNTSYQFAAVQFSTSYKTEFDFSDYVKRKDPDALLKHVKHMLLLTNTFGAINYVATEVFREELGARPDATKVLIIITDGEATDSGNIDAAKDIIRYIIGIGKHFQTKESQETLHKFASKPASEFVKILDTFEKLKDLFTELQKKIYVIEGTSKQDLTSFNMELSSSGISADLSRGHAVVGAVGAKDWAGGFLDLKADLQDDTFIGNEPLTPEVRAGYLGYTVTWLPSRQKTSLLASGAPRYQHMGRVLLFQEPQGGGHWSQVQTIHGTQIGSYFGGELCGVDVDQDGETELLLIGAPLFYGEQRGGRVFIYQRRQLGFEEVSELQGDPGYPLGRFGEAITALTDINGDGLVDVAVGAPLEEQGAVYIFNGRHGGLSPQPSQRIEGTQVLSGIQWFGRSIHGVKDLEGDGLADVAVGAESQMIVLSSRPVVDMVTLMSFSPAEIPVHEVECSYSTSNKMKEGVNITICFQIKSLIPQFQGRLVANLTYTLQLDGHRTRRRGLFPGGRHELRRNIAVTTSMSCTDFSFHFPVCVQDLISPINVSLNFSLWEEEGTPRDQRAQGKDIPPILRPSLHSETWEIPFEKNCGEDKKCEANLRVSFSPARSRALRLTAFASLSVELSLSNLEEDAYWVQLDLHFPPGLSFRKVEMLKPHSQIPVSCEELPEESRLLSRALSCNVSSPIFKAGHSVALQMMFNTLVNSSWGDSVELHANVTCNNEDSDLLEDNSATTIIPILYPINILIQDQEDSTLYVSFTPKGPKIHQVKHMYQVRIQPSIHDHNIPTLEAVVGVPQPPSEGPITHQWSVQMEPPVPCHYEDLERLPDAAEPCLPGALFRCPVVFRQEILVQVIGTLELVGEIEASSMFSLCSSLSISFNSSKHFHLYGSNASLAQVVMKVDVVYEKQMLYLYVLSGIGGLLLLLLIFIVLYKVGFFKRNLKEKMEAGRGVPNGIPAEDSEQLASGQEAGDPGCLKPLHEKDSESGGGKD
# [1] = Inhibition of LFA1 expressed in human JY cells interaction with ICAM1-IG expressed in human HeLa cell monolayer after 45 mins by cell adhesion assay
Structure (SMILES),IC50 (Integrin alpha-L) [nM],IC50 [1] [nM]
CC(C)(O)C=CC(=O)[C@](C)(O)[C@H]1[C@H](O)C[C@@]2(C)[C@@H]3CC=C4[C@@H](CC(=O)C(=O)C4(C)C)[C@]3(C)C(=O)C[C@]12C [NSC-521777],950,
CC(C)(O)CCC(=O)[C@@](C)(O)C1[C@H](O)C[C@@]2(C)[C@@H]3CC=C4C(CC(=O)C(=O)C4(C)C)[C@]3(C)C(=O)C[C@]12C (stereo partly drawn) [Cucurbitacin L],> 50000,
CC(C)(O)/C=C/C(=O)[C@@](C)(O)[C@H]1[C@H](O)C[C@@]2(C)[C@@H]3CC=C4[C@@H](C[C@H](O)C(=O)C4(C)C)[C@]3(C)C(=O)C[C@]12C,,1360
